In paper PMC3432134, “Effect of Ambient Temperature on the Thermoregulatory and Locomotor Stimulant Effects of 4-Methylmethcathinone in Wistar and Sprague-Dawley Rats” (PLoS ONE, 2012):
Where “and” joins values, the source holds several entries; their conditions need not be identical. Identical values can stand only once.

Key:
[1] = system: Wistar and Sprague-Dawley rats; assay: Body temperature by implanted radiotelemetry after s.c. drug challenge
[2] = system: Wistar and Sprague-Dawley rats; assay: Locomotor activity (activity counts) by implanted radiotelemetry after s.c. drug challenge
[3] = Pharmacokinetic study, plasma levels by LC/MS/MS after s.c. dosing; format: in vivo, rat; conditions: for AUC(0-inf) / Tmax / Cmax: rat, plasma, sc, 5.6 mg/kg s.c.
Procedure: Surgical placement of jugular vein catheters was conducted at the vendor prior to delivery at the laboratory. Blood samples were collected via the jugular catheters at timepoints 5, 15, 30, 60, 120 min and 3, 6 and 24 hrs after dosing. Plasma was stored at −80°C until analysis for drug concentrations via LC/MS/MS. Sample analysis was by LC/MS/MS with data analysis via the non compartmental analysis model of PK Solutions (Summit Research Services; Montrose, CO). The summary data for the Sprague-Dawley group have been previously described.

[4] = system: extra-cellular dopamine in the nucleus accumbens shell; assay: In vivo microdialysis, nucleus accumbens shell, dopamine; design: species or system rat; conditions: 5 male Wistar rats, 10 mg/kg s.c.
Procedure: (§1) For microdialysis studies, drug naïve rats were implanted with a microdialysis guide cannula and probe using previously published procedures. A guide cannula (SciPro, Sanborn, NY) was implanted aimed at the NAc shell (AP = +1.6 mm, bregma; ML = ±2.0 mm, bregma; DV = –5.0 mm, dura), and rats were allowed one week for recovery. On the evening prior to the experiment, a 2 mm microdialysis probe was inserted into the guide cannula and perfused overnight with artificial CSF (0.1 µl/min) composed of the following (in mM): 149 NaCl, 2.8 KCl, 1.2 CaCl2, 1.2 MgCl2, 0.25 ascorbic acid, 5.4 D-glucose. The following morning, the perfusion rate was raised to 0.6 µl/min and samples were collected in 15 min fractions following 1 hr of equilibration.

[5] = system: extra-cellular serotonin in the nucleus accumbens shell; assay: In vivo microdialysis, nucleus accumbens shell, serotonin; design: species or system rat; conditions: 5 male Wistar rats, 10 mg/kg s.c.
Procedure: as §1

[6] = system: 5-HT2 receptor subtypes versus D2 receptors; design: method as in PMID 21824752; conditions: in vitro; greater affinity for 5-HT2; cited from earlier work
extracellular dopamine = system: extracellular dopamine; design: method as in PMID 21615721, PMID 22169943; conditions: cited from earlier work
Sprague-Dawley rats = system: Sprague-Dawley rats; design: method as in PMID 21810934; conditions: four sequential doses of 1.0 or 3.0 mg/kg s.c. two hours apart, and i.v. self-administration (mean 1.77–6.78 mg/kg), ambient ≥27°C; cited from earlier work
experienced-user sample = conditions: one experienced-user sample; cited from earlier work
[7] = Sprague-Dawley rats, 23°C ambient, first hour after 3.2 mg/kg 4-MMC and 5.6 mg/kg METH, vs pretreatment and vehicle
[8] = Wistar rats, 23°C ambient, first hour after 3.2 mg/kg 4-MMC or 5.6 mg/kg METH, second hour after 10.0 mg/kg 4-MMC, third hour after 5.6 mg/kg METH
[9] = both strains, 23°C ambient, first hour after 10.0 mg/kg 4-MMC or 1.0 mg/kg METH s.c., greater in Sprague-Dawley
[10] = Wistar Han, male Wistar rats (N = 3)
[11] = male Sprague Dawley rats (N = 3), summary data previously described [32]
[12] = subcutaneous dosing, rats (strain not given)
[13] = Wistar and Sprague-Dawley rats, s.c.

## CN[C@@H](C)Cc1ccccc1 [METH, d-methamphetamine]
[1]; Sprague-Dawley rats, 23°C ambient, first hour after 1.0 mg/kg and first two hours after 5.6 mg/kg s.c., vs baseline and vehicle
  body temperature (hourly average): significantly increased
[2]; [7]
  locomotor activity (hourly summed counts): reliably higher
[2]; [8]
  locomotor activity (hourly summed counts): higher than the vehicle condition
[2]; [9]
  locomotor activity (hourly summed counts): increased over pretreatment levels and vehicle
[2]; both strains, 23°C ambient, second hour after 5.6 mg/kg s.c.
  locomotor activity (hourly summed counts): suppressed

## CCCN(CCC)C1CCc2cccc(O)c2C1 (stereo not drawn) [8-OH-DPAT]
[1]; Sprague-Dawley rats, 0.3 mg/kg s.c., 23°C ambient
  mean temperature nadir: 35.62 (±0.177) °C
[1]; Sprague-Dawley rats, 0.05, 0.1, 0.3 mg/kg, first hour (second hour also for 0.3 mg/kg), vs vehicle and baseline
  body temperature (hourly average): lowered body temperature
[1]; Wistar rats, 0.3 mg/kg s.c., 23°C ambient
  mean temperature nadir: 35.18 (±0.178) °C
[1]; Wistar rats, two hours after dosing with all three doses (0.05, 0.1, 0.3 mg/kg), vs vehicle and baseline
  body temperature (hourly average): hypothermia
[1]; each strain of rats, 23°C ambient, s.c.
  body temperature: significantly reduced

## CNC(C)C(=O)c1ccc(C)cc1 (stereo not drawn) [4-MMC, 4-methylmethcathinone]
[3]; [10]
  AUC(0-inf): 870 ng·h/mL
  Tmax: 15 min
  Cmax: 868 ng/mL and 4.9 µM
[3]; [11]
  AUC(0-inf): 1170 ng·h/mL
  Tmax: 15 min
  Cmax: 1210 ng/mL and 6.81 µM
[3]; [12]
  elimination from plasma: mostly eliminated within two hours
  time at which maximum plasma levels were observed: ≤ 15 min
[4]
  relative increase of extra-cellular DA over baseline: ~9 fold
[4]; Dunnett post-hoc
  duration of significant increase of DA over the pre-treatment average: 2 h
[5]
  relative increase of extra-cellular 5-HT over baseline: ~22 fold
[5]; Dunnett post-hoc
  duration of significant increase of 5-HT over the pre-treatment average: 1.5 h
[6]
  affinity for 5-HT2 receptor subtypes relative to D2 receptors: 15 fold
Extracellular dopamine
  increase of extracellular dopamine, less than METH: about 6 fold
Sprague-Dawley rats
  rectal temperature: elevates
experienced-user sample
  users reporting cold extremities: About 15%
  users reporting excessive perspiration: 67%
[1]; Sprague-Dawley rats, 23°C ambient, only following 3.2 mg/kg (2, 3 hrs) and 5.6 mg/kg (3 hrs)
  body temperature (hourly average): lower than both the pretreatment baseline and the comparable timepoint after vehicle injection
[1]; Sprague-Dawley rats, 23°C ambient, second hour after 10.0 mg/kg
  body temperature (hourly average): increased relative to vehicle
[1]; Sprague-Dawley rats, 27°C ambient, first hour after administration
  body temperature (hourly average): unchanged
[1]; Sprague-Dawley rats, 27°C ambient, third hour after 1.0 mg/kg, vs baseline and vehicle
  body temperature (hourly average): reliable decrease
[1]; Wistar rats, 10 mg/kg s.c., 23°C ambient, (±SEM)
  mean temperature nadir: 36.74 (±0.187) °C
[1]; Wistar rats, 10 mg/kg s.c., 27°C ambient, (±SEM)
  mean temperature nadir: 37.35 (±0.115) °C
[1]; Wistar rats, 23°C ambient, first hour after 3.2, 5.6 and 10 mg/kg s.c., vs baseline, saline and Sprague-Dawley
  body temperature (hourly average): significantly lowered
[1]; Wistar rats, 27°C ambient, first hour after 5.6 or 10.0 mg/kg s.c., vs baseline, saline and Sprague-Dawley
  body temperature (hourly average): decreased
[1]; s.c. dosing, rats, applies to temperature and activity
  duration of temperature and activity effects: about 90 minutes
[2]; [7]
  locomotor activity (hourly summed counts): reliably higher
[2]; Sprague-Dawley rats, 27°C ambient, first hour after 5.6 or 10.0 mg/kg, vs pre-injection, vehicle and Wistar
  locomotor activity (hourly summed counts): higher
[2]; [13]
  efficacy in stimulating locomotion relative to d-methamphetamine (METH): equally efficacious
  potency in stimulating locomotion relative to METH: about tenfold less potent
[2]; [8]
  locomotor activity (hourly summed counts): higher than the vehicle condition
[2]; Wistar rats, 27°C ambient, after 3.2, 5.6 and 10.0 mg/kg, vs hour before injection and vehicle
  locomotor activity (hourly summed counts): higher
[2]; [9]
  locomotor activity (hourly summed counts): increased over pretreatment levels and vehicle
[2]; each strain, 23°C ambient, first hour after 5.6 or 10.0 mg/kg s.c., vs pre-injection hour and saline
  locomotor activity (hourly summed counts): significantly elevated
[2]; each strain, 23°C ambient, second hour after 10.0 mg/kg, vs vehicle, effect greater in Sprague-Dawley
  locomotor activity (hourly summed counts): significant increase
